This is an account of results in patent publication US20230322761A1, “DEGRADATION OF BRUTON'S TYROSINE KINASE (BTK) BY CONJUGATION OF BTK INHIBITORS WITH E3 LIGASE LIGAND AND METHODS OF USE” (BEIGENE, LTD., priority 2020, published 2023).

Some results are limits rather than exact numbers.

T1 sequence (Q06187 whole entry): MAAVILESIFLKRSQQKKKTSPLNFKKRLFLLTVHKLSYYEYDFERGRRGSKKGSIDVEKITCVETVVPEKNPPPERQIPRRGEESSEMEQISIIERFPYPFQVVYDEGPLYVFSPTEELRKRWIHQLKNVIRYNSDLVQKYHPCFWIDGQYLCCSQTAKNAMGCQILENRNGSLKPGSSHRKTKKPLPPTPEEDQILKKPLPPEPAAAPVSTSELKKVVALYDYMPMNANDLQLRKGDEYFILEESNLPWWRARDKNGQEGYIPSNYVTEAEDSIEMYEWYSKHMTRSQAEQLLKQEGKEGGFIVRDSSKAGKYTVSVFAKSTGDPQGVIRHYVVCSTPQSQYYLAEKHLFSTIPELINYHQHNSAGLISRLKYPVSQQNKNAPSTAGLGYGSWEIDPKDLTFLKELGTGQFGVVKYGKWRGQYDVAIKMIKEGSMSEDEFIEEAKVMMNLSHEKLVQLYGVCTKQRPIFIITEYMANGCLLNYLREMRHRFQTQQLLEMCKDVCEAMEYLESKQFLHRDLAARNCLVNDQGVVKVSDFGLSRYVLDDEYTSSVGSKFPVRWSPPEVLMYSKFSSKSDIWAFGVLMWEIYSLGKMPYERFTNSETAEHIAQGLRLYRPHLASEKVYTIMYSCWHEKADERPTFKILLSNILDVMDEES

The assay concerns the target T1, BTK (Homo sapiens, UniProt Q06187).
T1 construct: endogenous in cells; host or cells: TMD-8 cells
Nature of the assay: BTK degradation in TMD-8 cells, HTRF assay after 6 h treatment. The assay is classed as cell-based. The note with it: IC50 (DC50) of BTK degradation. Put shortly:
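TMD-8 cells treated for 6 h with 8 compound doses in 6-fold dilution steps from a 1 mM 500× DMSO stock (0.2% DMSO), then lysed 30 min at room temperature. BTK in lysate detected by HTRF (665/620 nm) after overnight antibody incubation; DC50 from four-parameter curve fit.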
(In general: TR-FRET usually uses a lanthanide donor and a delayed reading to cut background.)
On to `Cc1cc(-c2n[nH]c3nc(-c4ccc(N5CCN(CC6CCN(c7ccc(N8CCC(=O)NC8=O)cc7)CC6)CC5)cc4)ccc23)ccc1[C@@H](C)NC(=O)c1noc(C(C)(C)C)n1` [Example 157, (R)-5-(tert-butyl)-N-(1-(4-(6-(4-(4-((1-(4-(2,4-dioxotetrahydropyrimidin-1(2H)-yl)phenyl)piperidin-4-yl)methyl)piperazin-1-yl)phenyl)-1H-pyrazolo[3,4-b]pyridin-3-yl)-2-methylphenyl)ethyl)-1,2,4-oxadiazole-3-carboxamide], for which it took 62.1 nM to reach half-maximal degradation (DC50). In other words, the double-digit nanomolar range.
To `Cc1cc(-c2n[nH]c3ncc(-c4ccc(N5CCN(CCc6ccc(N7CCC(=O)NC7=O)nc6)CC5)cc4)cc23)ccc1[C@@H](C)NC(=O)c1noc(C(C)(C)C)n1` [Example 159, (R)-5-(tert-butyl)-N-(1-(4-(5-(4-(4-(2-(6-(2,4-dioxotetrahydropyrimidin-1(2H)-yl)pyridin-3-yl)ethyl)piperazin-1-yl)phenyl)-1H-pyrazolo[3,4-b]pyridin-3-yl)-2-methylphenyl)ethyl)-1,2,4-oxadiazole-3-carboxamide] belongs 56.3 nM; to `Cc1cc(-c2n[nH]c3ncc(-c4ccc(N5CCN(CC(C)c6ccc(N7CCC(=O)NC7=O)cc6)CC5)cc4)cc23)ccc1[C@@H](C)NC(=O)c1noc(C(C)(C)C)n1` (stereo partly drawn) [Example 160, 5-(tert-butyl)-N-((1R)-1-(4-(5-(4-(4-(2-(4-(2,4-dioxotetrahydropyrimidin-1(2H)-yl)phenyl)propyl)piperazin-1-yl)phenyl)-1H-pyrazolo[3,4-b]pyridin-3-yl)-2-methylphenyl)ethyl)-1,2,4-oxadiazole-3-carboxamide], 10.6 nM; to `Cc1cc(-c2n[nH]c3ncc(-c4ccc(N5CCN(CCc6ccc([C@@H]7CCC(=O)NC7=O)cc6)CC5)cn4)cc23)ccc1[C@@H](C)NC(=O)c1noc(C(C)(C)C)n1` [Example 161, 5-(tert-butyl)-N—((R)-1-(4-(5-(5-(4-(4-((S)-2,6-dioxopiperidin-3-yl)phenethyl)piperazin-1-yl)pyridin-2-yl)-1H-pyrazolo[3,4-b]pyridin-3-yl)-2-methylphenyl)ethyl)-1,2,4-oxadiazole-3-carboxamide], 5.27 nM.
With `Cc1cc(-c2n[nH]c3ncc(-c4ccc(N5CCN(CCc6ccc([C@H]7CCC(=O)NC7=O)cc6)CC5)cn4)cc23)ccc1[C@@H](C)NC(=O)c1noc(C(C)(C)C)n1` [Example 162, 5-(tert-butyl)-N—((R)-1-(4-(5-(5-(4-(4-((R)-2,6-dioxopiperidin-3-yl)phenethyl)piperazin-1-yl)pyridin-2-yl)-1H-pyrazolo[3,4-b]pyridin-3-yl)-2-methylphenyl)ethyl)-1,2,4-oxadiazole-3-carboxamide] the figure was 1.01 nM; with `Cc1cc(-c2n[nH]c3ncc(-c4ccc(N5CCN(CCc6ccc(C7CCC(=O)NC7=O)c(C)n6)CC5)cn4)cc23)ccc1[C@@H](C)NC(=O)c1noc(C(C)(C)C)n1` (stereo partly drawn) [Example 163, 5-(tert-butyl)-N-((1R)-1-(4-(5-(5-(4-(2-(5-(2,6-dioxopiperidin-3-yl)-6-methylpyridin-2-yl)ethyl)piperazin-1-yl)pyridin-2-yl)-1H-pyrazolo[3,4-b]pyridin-3-yl)-2-methylphenyl)ethyl)-1,2,4-oxadiazole-3-carboxamide], 2.13 nM; with `Cc1cc(-c2n[nH]c3ncc(-c4ccc(N5CCN(CCn6nc(C)c(N7CCC(=O)NC7=O)c6C)CC5)cc4)cc23)ccc1[C@@H](C)NC(=O)c1noc(C(C)(C)C)n1` [Example 164, (R)-5-(tert-butyl)-N-(1-(4-(5-(4-(4-(2-(4-(2,4-dioxotetrahydropyrimidin-1(2H)-yl)-3,5-dimethyl-1H-pyrazol-1-yl)ethyl)piperazin-1-yl)phenyl)-1H-pyrazolo[3,4-b]pyridin-3-yl)-2-methylphenyl)ethyl)-1,2,4-oxadiazole-3-carboxamide], 2.05 nM.
To `Cc1cc(-c2n[nH]c3ncc(-c4ccc(N5CCC(CN6CCN(c7ccc(N8CCC(=O)NC8=O)cn7)CC6)CC5)cc4)cc23)ccc1[C@@H](C)NC(=O)c1noc(C(C)(C)C)n1` [Example 165, (R)-5-(tert-butyl)-N-(1-(4-(5-(4-(4-((4-(5-(2,4-dioxotetrahydropyrimidin-1(2H)-yl)pyridin-2-yl)piperazin-1-yl)methyl)piperidin-1-yl)phenyl)-1H-pyrazolo[3,4-b]pyridin-3-yl)-2-methylphenyl)ethyl)-1,2,4-oxadiazole-3-carboxamide] belongs 2.7 nM.
For the compound `Cc1nc(CCN2CCN(c3ccc(-c4cnc5[nH]nc(-c6ccc([C@@H](C)NC(=O)c7noc(C(C)(C)C)n7)c(C)c6F)c5c4)cc3)CC2)ccc1C1CCC(=O)NC1=O` (stereo partly drawn) [Example 166, 5-(tert-butyl)-N-((1R)-1-(4-(5-(4-(4-(2-(5-(2,6-dioxopiperidin-3-yl)-6-methylpyridin-2-yl)ethyl)piperazin-1-yl)phenyl)-1H-pyrazolo[3,4-b]pyridin-3-yl)-3-fluoro-2-methylphenyl)ethyl)-1,2,4-oxadiazole-3-carboxamide], the DC50 was 3.07 nM. This DC50 and that of the compound before are within 1.5-fold of each other.
With `Cc1nc(CCN2CCN(c3ccc(-c4cnc5[nH]nc(-c6ccc([C@@H](C)NC(=O)c7noc(C(C)(C)C)n7)c(CO)c6)c5c4)cc3)CC2)ccc1C1CCC(=O)NC1=O` (stereo partly drawn) [Example 167, 5-(tert-butyl)-N-((1R)-1-(4-(5-(4-(4-(2-(5-(2,6-dioxopiperidin-3-yl)-6-methylpyridin-2-yl)ethyl)piperazin-1-yl)phenyl)-1H-pyrazolo[3,4-b]pyridin-3-yl)-2-(hydroxymethyl)phenyl)ethyl)-1,2,4-oxadiazole-3-carboxamide] the figure was 4.13 nM; with `Cc1cc(N2CCC(CCN3CCN(c4ccc(-c5cnc6[nH]nc(-c7ccc([C@@H](C)NC(=O)c8noc(C(C)(C)C)n8)c(C)c7)c6c5)cc4)CC3)CC2)ccc1C1CCC(=O)NC1=O` (stereo partly drawn) [Example 168, 5-(tert-butyl)-N-((1R)-1-(4-(5-(4-(4-(2-(1-(4-(2,6-dioxopiperidin-3-yl)-3-methylphenyl)piperidin-4-yl)ethyl)piperazin-1-yl)phenyl)-1H-pyrazolo[3,4-b]pyridin-3-yl)-2-methylphenyl)ethyl)-1,2,4-oxadiazole-3-carboxamide], 15.6 nM.
Compound `COc1cc(N2CCC(CCN3CCN(c4ccc(-c5cnc6[nH]nc(-c7ccc([C@@H](C)NC(=O)c8noc(C(C)(C)C)n8)c(C)c7)c6c5)cc4)CC3)CC2)ccc1C1CCC(=O)NC1=O` (stereo partly drawn) [Example 169, 5-(tert-butyl)-N-((1R)-1-(4-(5-(4-(4-(2-(1-(4-(2,6-dioxopiperidin-3-yl)-3-methoxyphenyl)piperidin-4-yl)ethyl)piperazin-1-yl)phenyl)-1H-pyrazolo[3,4-b]pyridin-3-yl)-2-methylphenyl)ethyl)-1,2,4-oxadiazole-3-carboxamide] registered a DC50 of 15.1 nM.
With `Cc1cc(-c2n[nH]c3ncc(-c4ccc(N5CC6CC5CN6CCc5ccc(C6CCC(=O)NC6=O)c(C)n5)cn4)cc23)ccc1[C@@H](C)NC(=O)c1noc(C(C)(C)C)n1` (stereo partly drawn) [Example 170, 5-(tert-butyl)-N-((1R)-1-(4-(5-(5-(5-(2-(5-(2,6-dioxopiperidin-3-yl)-6-methylpyridin-2-yl)ethyl)-2,5-diazabicyclo[2.2.1]heptan-2-yl)pyridin-2-yl)-1H-pyrazolo[3,4-b]pyridin-3-yl)-2-methylphenyl)ethyl)-1,2,4-oxadiazole-3-carboxamide], the half-maximal degradation concentration (DC50) was 4.77 nM.
With `COc1cc(N2CCC(=O)NC2=O)ccc1N1CCC(CN2CCN(c3ccc(-c4cnc5[nH]nc(-c6ccc([C@@H](C)NC(=O)c7noc(C(C)(C)C)n7)c(C)c6)c5c4)cc3)CC2)CC1` [Example 171, (R)-5-(tert-butyl)-N-(1-(4-(5-(4-(4-((1-(4-(2,4-dioxotetrahydropyrimidin-1(2H)-yl)-2-methoxyphenyl)piperidin-4-yl)methyl)piperazin-1-yl)phenyl)-1H-pyrazolo[3,4-b]pyridin-3-yl)-2-methylphenyl)ethyl)-1,2,4-oxadiazole-3-carboxamide] the figure was 3.52 nM.
With `Cc1cc(-c2n[nH]c3ncc(-c4ccc(N5CCN(CC6CCN(c7ccc(N8CCC(=O)NC8=O)c(C)c7)CC6)CC5)cc4)cc23)ccc1[C@@H](C)NC(=O)c1cc(C(C)(C)C)on1` [Example 172, (R)-5-(tert-butyl)-N-(1-(4-(5-(4-(4-((1-(4-(2,4-dioxotetrahydropyrimidin-1(2H)-yl)-3-methylphenyl)piperidin-4-yl)methyl)piperazin-1-yl)phenyl)-1H-pyrazolo[3,4-b]pyridin-3-yl)-2-methylphenyl)ethyl)isoxazole-3-carboxamide], it took 20.8 nM to reach half-maximal degradation (DC50). This DC50 lies about 5.9-fold higher than the previous one.
With `Cc1cc(CCN2CC3CC2CN3c2ccc(-c3cnc4[nH]nc(-c5ccc([C@@H](C)NC(=O)c6noc(C(C)(C)C)n6)c(C)c5)c4c3)nc2)ncc1C1CCC(=O)NC1=O` (stereo partly drawn) [Example 173, 5-(tert-butyl)-N-((1R)-1-(4-(5-(5-(5-(2-(5-(2,6-dioxopiperidin-3-yl)-4-methylpyridin-2-yl)ethyl)-2,5-diazabicyclo[2.2.1]heptan-2-yl)pyridin-2-yl)-1H-pyrazolo[3,4-b]pyridin-3-yl)-2-methylphenyl)ethyl)-1,2,4-oxadiazole-3-carboxamide] the figure was above 2000 nM; with `Cc1cc(-c2n[nH]c3ncc(-c4ccc(N5CC6CN(CCc7ccc(C8CCC(=O)NC8=O)cc7)CC6C5)cn4)cc23)ccc1[C@@H](C)NC(=O)c1noc(C(C)(C)C)n1` (stereo partly drawn) [Example 174, 5-(tert-butyl)-N-((1R)-1-(4-(5-(5-(5-(4-(2,6-dioxopiperidin-3-yl)phenethyl)hexahydropyrrolo[3,4-c]pyrrol-2(1H)-yl)pyridin-2-yl)-1H-pyrazolo[3,4-b]pyridin-3-yl)-2-methylphenyl)ethyl)-1,2,4-oxadiazole-3-carboxamide], 1.68 nM.
The compound `Cc1cc(-c2n[nH]c3ncc(-c4ccc(N5CCN(CC(F)(F)c6ccc(C7CCC(=O)NC7=O)cc6)CC5)cc4)cc23)ccc1[C@@H](C)NC(=O)c1noc(C(C)(C)C)n1` (stereo partly drawn) [Example 175, 5-(tert-butyl)-N-((1R)-1-(4-(5-(4-(4-(2-(4-(2,6-dioxopiperidin-3-yl)phenyl)-2,2-difluoroethyl)piperazin-1-yl)phenyl)-1H-pyrazolo[3,4-b]pyridin-3-yl)-2-methylphenyl)ethyl)-1,2,4-oxadiazole-3-carboxamide] came in with a DC50 of 8.39 nM. Against the preceding compound, the DC50 is about 5-fold higher.

The DC50 is the concentration at which degradation of the target reaches its halfway point. Read a high DC50 as degradation only at high concentration.
